Reference: ChEMBL document CHEMBL5724914, “Linking interpersonal differences in gut microbiota composition and drug biotransformation activity” (2024)

Tests used:
[1] = human gut metagenome, 24 h, 2 µM
[2] = (§1) The drug is tested on Z-010 corresponding to metagenome with ENA study accession number: PRJEB37062 and ENA sample accession number: ERS12561810 for biotransformation under anaerobic condition. The drug concentrations were measured over 9 timepoints collected between 0 and 24 hours of incubation by liquid-chromatography-coupled mass spectrometry (LC–MS); conditions: 2 µM
[3] = human gut metagenome, 24 h, 2 µM; remark: listed apart in the source
[4] = (§2) The drug is tested on WLS-082 corresponding to human gut metagenome with ENA study accession number: PRJEB37062 and ENA sample accession number: ERS12561751 for biotransformation under anaerobic condition. The drug concentrations were measured over 9 timepoints collected between 0 and 24 hours of incubation by liquid-chromatography-coupled mass spectrometry (LC–MS); conditions: 2 µM
[5] = human gut metagenome, 24 h, 2 µM; remark: listed apart in the source
[6] = human gut metagenome, 24 h, 2 µM; remark: listed apart in the source
[7] = as §2, with “Z-018” for “WLS-082”, “pig” for “human”, “ERS12561817” for “ERS12561751”; conditions: 2 µM
[8] = as §2, with “Z-002” for “WLS-082”, “rabbit” for “human”, “ERS12561802” for “ERS12561751”; conditions: 2 µM
[9] = as §1, with “Z-012” for “Z-010”, “ERS12561812” for “ERS12561810”; conditions: 2 µM
[10] = as §2, with “Z-013” for “WLS-082”, “rabbit” for “human”, “ERS12561813” for “ERS12561751”; conditions: 2 µM
[11] = as §2, with “WLS-098” for “WLS-082”, “ERS12561754” for “ERS12561751”; conditions: 2 µM
[12] = human gut metagenome, 24 h, 2 µM; remark: listed apart in the source
[13] = as §2, with “Z-028” for “WLS-082”, “mouse” for “human”, “ERS12561827” for “ERS12561751”; conditions: 2 µM
[14] = as §2, with “WLS-038” for “WLS-082”, “ERS12561745” for “ERS12561751”; conditions: 2 µM
[15] = human gut metagenome, 24 h, 2 µM; remark: listed apart in the source
[16] = as §2, with “WLS-370” for “WLS-082”, “ERS12561793” for “ERS12561751”; conditions: 2 µM
[17] = as §2, with “WLS-240” for “WLS-082”, “ERS12561773” for “ERS12561751”; conditions: 2 µM
[18] = as §2, with “Z-029” for “WLS-082”, “rat” for “human”, “ERS12561828” for “ERS12561751”; conditions: 2 µM
[19] = human gut metagenome, 24 h, 2 µM; remark: listed apart in the source
[20] = as §2, with “WLS-350” for “WLS-082”, “ERS12561789” for “ERS12561751”; conditions: 2 µM
Also: call rule not given here.

SMILES | Bacterial Biotransformation [1] | Bacterial Biotransformation [2] | Bacterial Biotransformation [3] | Bacterial Biotransformation [4] | Bacterial Biotransformation [5] | Bacterial Biotransformation [6] | Bacterial Biotransformation [7] | Bacterial Biotransformation [8] | Bacterial Biotransformation [9] | Bacterial Biotransformation [10] | Bacterial Biotransformation [11] | Bacterial Biotransformation [12] | Bacterial Biotransformation [13] | Bacterial Biotransformation [14] | Bacterial Biotransformation [15] | Bacterial Biotransformation [16] | Bacterial Biotransformation [17] | Bacterial Biotransformation [18] | Bacterial Biotransformation [19] | Bacterial Biotransformation [20]
CN1CCN(C(=O)O[C@H]2c3nccnc3C(=O)N2c2ccc(Cl)cn2)CC1 [ESZOPICLONE] | Compound NOT metabolized | Compound NOT metabolized | Compound NOT metabolized | Compound NOT metabolized | Compound NOT metabolized | Compound NOT metabolized | Compound NOT metabolized | Compound NOT metabolized | Compound NOT metabolized | Compound NOT metabolized | Compound NOT metabolized | Compound NOT metabolized | Compound NOT metabolized | Compound NOT metabolized | Compound NOT metabolized | Compound NOT metabolized | Compound NOT metabolized | Compound NOT metabolized | Compound NOT metabolized | Compound NOT metabolized
O=C1[C@H](CC[C@H](O)c2ccc(F)cc2)[C@@H](c2ccc(O)cc2)N1c1ccc(F)cc1 [EZETIMIBE] | Compound NOT metabolized | Compound NOT metabolized | Compound NOT metabolized | Compound metabolized | Compound NOT metabolized | Compound NOT metabolized | Compound NOT metabolized | Compound NOT metabolized | Compound NOT metabolized | Compound NOT metabolized | Compound metabolized | Compound NOT metabolized | Compound NOT metabolized | Compound NOT metabolized | Compound metabolized | Compound metabolized | Compound metabolized | Compound NOT metabolized | Compound NOT metabolized | Compound NOT metabolized
CC(C)OC(=O)C(C)(C)Oc1ccc(C(=O)c2ccc(Cl)cc2)cc1 [FENOFIBRATE] | Compound metabolized | Compound metabolized | Compound metabolized | Compound NOT metabolized | Compound NOT metabolized | Compound NOT metabolized | Compound metabolized | Compound metabolized | Compound metabolized | Compound metabolized | Compound metabolized | Compound NOT metabolized | Compound metabolized | Compound NOT metabolized | Compound NOT metabolized | Compound metabolized | Compound NOT metabolized | Compound NOT metabolized | Compound metabolized | Compound NOT metabolized
O=C1NCC2(CCN(CCc3ccccc3)CC2)O1 [FENSPIRIDE] | Compound NOT metabolized | Compound NOT metabolized | Compound NOT metabolized | Compound NOT metabolized | Compound NOT metabolized | Compound NOT metabolized | Compound NOT metabolized | Compound metabolized | Compound NOT metabolized | Compound NOT metabolized | Compound NOT metabolized | Compound NOT metabolized | Compound NOT metabolized | Compound NOT metabolized | Compound NOT metabolized | Compound NOT metabolized | Compound NOT metabolized | Compound NOT metabolized | Compound NOT metabolized | Compound NOT metabolized
OC(Cn1cncn1)(Cn1cncn1)c1ccc(F)cc1F [FLUCONAZOLE] | Compound NOT metabolized | Compound NOT metabolized | Compound metabolized | Compound metabolized | Compound metabolized | Compound NOT metabolized | Compound NOT metabolized | Compound metabolized | Compound NOT metabolized | Compound NOT metabolized | Compound metabolized | Compound metabolized | Compound NOT metabolized | Compound NOT metabolized | Compound metabolized | Compound NOT metabolized | Compound metabolized | Compound NOT metabolized | Compound metabolized | Compound metabolized
CNCCC(Oc1ccc(C(F)(F)F)cc1)c1ccccc1 (stereo not given) [FLUOXETINE] | Compound NOT metabolized | Compound NOT metabolized | Compound NOT metabolized | Compound NOT metabolized | Compound NOT metabolized | Compound NOT metabolized | Compound NOT metabolized | Compound NOT metabolized | Compound NOT metabolized | Compound NOT metabolized | Compound NOT metabolized | Compound NOT metabolized | Compound NOT metabolized | Compound NOT metabolized | Compound NOT metabolized | Compound metabolized | Compound metabolized | Compound NOT metabolized | Compound NOT metabolized | Compound NOT metabolized
O=C(CCCN1CCC(O)(c2ccc(Cl)cc2)CC1)c1ccc(F)cc1 [HALOPERIDOL] | Compound NOT metabolized | Compound NOT metabolized | Compound metabolized | Compound metabolized | Compound metabolized | Compound NOT metabolized | Compound NOT metabolized | Compound metabolized | Compound NOT metabolized | Compound NOT metabolized | Compound metabolized | Compound NOT metabolized | Compound NOT metabolized | Compound NOT metabolized | Compound metabolized | Compound NOT metabolized | Compound metabolized | Compound NOT metabolized | Compound metabolized | Compound NOT metabolized
CCCCC1=NC2(CCCC2)C(=O)N1Cc1ccc(-c2ccccc2-c2nnn[nH]2)cc1 [IRBESARTAN] | Compound metabolized | Compound metabolized | Compound metabolized | Compound metabolized | Compound metabolized | Compound NOT metabolized | Compound metabolized | Compound metabolized | Compound NOT metabolized | Compound NOT metabolized | Compound metabolized | Compound metabolized | Compound NOT metabolized | Compound metabolized | Compound metabolized | Compound metabolized | Compound metabolized | Compound NOT metabolized | Compound metabolized | Compound metabolized
